Test results as given in PubChem BioAssay (NCI).
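48-hour exposure; five concentrations; linearly interpolated endpoints. The concentration for 50% growth inhibition is given as GI50. At the TGI there is no net growth.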

Legend:
Test in all cases: growth of human tumour cells (NCI), 48 h
OVCAR-3 ovarian = system: OVCAR-3 ovarian
UACC-257 melanoma = system: UACC-257 melanoma
ACHN renal = system: ACHN renal
SR leukemia = system: SR leukemia
OVCAR-8 ovarian = system: OVCAR-8 ovarian
SK-MEL-2 melanoma = system: SK-MEL-2 melanoma
EKVX NSCLC = system: EKVX NSCLC
M14 melanoma = system: M14 melanoma
SK-MEL-5 melanoma = system: SK-MEL-5 melanoma

Structure (SMILES)	TGI (OVCAR-3 ovarian)	TGI (UACC-257 melanoma)	TGI (ACHN renal)	TGI (SR leukemia)	TGI (OVCAR-8 ovarian)	TGI (SK-MEL-2 melanoma)	TGI (EKVX NSCLC)	TGI (M14 melanoma)	TGI (SK-MEL-5 melanoma)	GI50 (OVCAR-3 ovarian)	GI50 (UACC-257 melanoma)	GI50 (ACHN renal)	GI50 (OVCAR-8 ovarian)	GI50 (SK-MEL-2 melanoma)	GI50 (M14 melanoma)	GI50 (SK-MEL-5 melanoma)	GI50 (SR leukemia)	GI50 (EKVX NSCLC)
Cc1c(NC(=O)C(=O)N=NC(=O)c2ccncc2)c(O)c2ccccc2c1O	29.1 µM	24.2 µM	29.6 µM	> 36.4 µM	52.1 µM	11 µM	19.9 µM	22.7 µM	5.8 µM	–	–	–	–	–	–	–	–	–
O=C1C2=C(c3ccccc31)C(c1cccc(Cl)c1)NC(=S)N2 (stereo not given)	> 100 µM	> 100 µM	> 100 µM	–	> 100 µM	> 100 µM	> 100 µM	> 100 µM	> 100 µM	–	–	–	–	–	–	–	–	–
N[C@H]1C2C3CC4C5CC(C42)C1(c1ccccc1)C53 (stereo not given in full)	> 100 µM	–	> 100 µM	> 100 µM	> 100 µM	> 100 µM	> 100 µM	> 100 µM	> 100 µM	–	–	–	–	–	–	–	–	–
O=[N+]([O-])c1ccc(-c2ccc(/C=N/n3c(-c4ccc(Cl)cc4)n[nH]c3=S)o2)cc1	> 66.8 µM	> 100 µM	> 60.8 µM	> 83.6 µM	> 100 µM	> 100 µM	> 100 µM	32.3 µM	49.8 µM	–	–	–	–	–	–	–	–	–
Cn1nc(-c2ccccc2NC(=O)C(F)(F)F)c(=O)n(C)c1=S	40.6 µM	–	77.5 µM	53.7 µM	67.7 µM	60.7 µM	86.5 µM	45 µM	> 100 µM	–	–	–	–	–	–	–	–	–
CCCCCCC(=O)C/C(CCC(=O)N(Cc1ccccc1)Cc1ccccc1)=N\Nc1ccc([N+](=O)[O-])cc1[N+](=O)[O-]	> 100 µM	> 100 µM	> 100 µM	–	> 100 µM	> 100 µM	> 100 µM	> 100 µM	> 100 µM	–	–	–	–	–	–	–	–	–
CC1=COC(=O)c2ccccc2N1	> 100 µM	–	> 100 µM	> 100 µM	> 100 µM	> 100 µM	> 100 µM	> 100 µM	> 100 µM	–	–	–	–	–	–	–	–	–
CCOP(=O)(OCC)C1C(=O)O[C@H]2CCCC[C@@H]12 (stereo not given in full)	> 100 µM	> 100 µM	> 100 µM	–	> 100 µM	> 100 µM	> 100 µM	> 100 µM	> 100 µM	–	–	–	–	–	–	–	–	–
Cc1ccc2c(c1)NC(c1ccc(C(=O)O)cc1)c1cccn1-2 (stereo not given)	> 100 µM	> 100 µM	42.6 µM	> 100 µM	–	> 100 µM	> 100 µM	> 100 µM	> 100 µM	–	–	–	–	–	–	–	–	–
C/C(=N\N(C)C)c1sc(-n2nc(-c3ccccc3)cc2-c2ccccc2)nc1C	> 100 µM	> 100 µM	> 100 µM	> 100 µM	> 100 µM	> 100 µM	> 100 µM	> 100 µM	> 100 µM	–	–	–	–	–	–	–	–	–
CC(=O)[CH-]C(=O)c1ccccc1.CC(=O)[CH-]C(=O)c1ccccc1.CCN(CC)CC[O-].CCN(CC)CC[O-].Cl.[Ti+4]	> 100 µM	96.1 µM	> 100 µM	–	> 100 µM	93.9 µM	–	45.9 µM	> 100 µM	28.3 µM	24.3 µM	39.5 µM	38.8 µM	26.9 µM	22.5 µM	27.9 µM	–	–
CCOC(=O)/N=c1\ss/c(=N\C(=S)N(C)C)n1-c1ccccc1	–	> 100 µM	> 100 µM	–	> 100 µM	> 100 µM	> 100 µM	> 100 µM	> 100 µM	23.2 µM	> 100 µM	–	> 100 µM	–	> 100 µM	18.8 µM	–	–
CC(=O)Oc1c(C)n(CCCl)ccc1=O	> 100 µM	> 100 µM	> 100 µM	> 100 µM	> 100 µM	> 100 µM	> 100 µM	> 100 µM	> 100 µM	–	–	–	–	–	–	–	–	–
C=C(c1ccccc1N)[C@@]1(O)C[C@H](/C(=C\C)CO)C[C@@H]1NCc1ccccc1	45.8 µM	32.3 µM	> 100 µM	–	53.2 µM	39.2 µM	> 100 µM	28.5 µM	32.8 µM	–	–	–	–	–	–	–	–	–
COc1cc2cc(Oc3ccc(NC(=O)Nc4cccc(C(F)(F)F)c4)cc3)c(C)nc2cc1OCCN1CCCCC1	3.15 µM	3.48 µM	3.06 µM	2.52 µM	–	–	2.92 µM	3.27 µM	3.16 µM	1.71 µM	1.86 µM	1.69 µM	–	–	1.79 µM	1.71 µM	0.479 µM	1.51 µM
CC(Cl)(/C=C/Cl)C(Cl)/C=C/C(Cl)(CCl)CBr (stereo not given)	25.3 µM	7.02 µM	18.1 µM	2.07 µM	13.2 µM	19.8 µM	> 77.3 µM	7.89 µM	25.1 µM	–	–	–	–	–	–	–	–	–
O/N=C1/C(=C/c2ccc(F)cc2)CCCC1C(NO)c1ccc(F)cc1 (stereo not given)	72.8 µM	64.5 µM	> 100 µM	–	> 100 µM	> 100 µM	> 100 µM	> 100 µM	39.2 µM	–	–	–	–	–	–	–	–	–

Structure (SMILES)	TGI (OVCAR-3 ovarian)	TGI (UACC-257 melanoma)	TGI (ACHN renal)	TGI (SR leukemia)	TGI (OVCAR-8 ovarian)	TGI (SK-MEL-2 melanoma)	TGI (EKVX NSCLC)	TGI (M14 melanoma)	TGI (SK-MEL-5 melanoma)	GI50 (OVCAR-3 ovarian)	GI50 (UACC-257 melanoma)	GI50 (ACHN renal)	GI50 (OVCAR-8 ovarian)	GI50 (SK-MEL-2 melanoma)	GI50 (M14 melanoma)	GI50 (SK-MEL-5 melanoma)	GI50 (SR leukemia)	GI50 (EKVX NSCLC)
COC1C=C(Nc2cccc(Cl)c2)C(=O)C1 (stereo not given)	> 100 µM	> 100 µM	> 100 µM	> 100 µM	> 100 µM	> 100 µM	55.3 µM	> 100 µM	> 100 µM	–	–	–	–	–	–	–	–	–
CCOC(=O)/C(C1=N[C@H](C(=O)OCC)CS1)=C(\C)O	> 100 µM	> 100 µM	> 100 µM	> 100 µM	> 100 µM	> 100 µM	> 100 µM	> 100 µM	> 100 µM	–	–	–	–	–	–	–	–	–
CC(C)=CC(=O)CC(=O)C(=O)Nc1ccc(C)c(C)c1	> 100 µM	> 100 µM	> 100 µM	> 100 µM	–	> 100 µM	> 100 µM	> 100 µM	–	–	–	–	–	–	–	–	–	–
O=C1C2=C(c3ccccc31)C(c1ccc(Cl)cc1)N1C(=O)CCSC1=N2 (stereo not given)	> 100 µM	> 100 µM	> 100 µM	–	–	> 100 µM	> 100 µM	> 100 µM	> 100 µM	–	–	–	–	–	–	–	–	–
S=c1[nH]nc(COc2ccc(Cl)cc2)o1	> 100 µM	> 100 µM	> 100 µM	–	> 100 µM	–	> 100 µM	> 100 µM	> 100 µM	–	–	–	–	–	–	–	–	–
COc1ccc(/C=C2/CCCC/C2=N/O)cc1	> 100 µM	> 100 µM	> 100 µM	–	> 100 µM	> 100 µM	> 100 µM	> 100 µM	–	–	–	–	–	–	–	–	–	–
O=C(Cc1ccccc1)NN1C(=O)C(Cl)C1c1cccc(O)c1 (stereo not given)	28.1 µM	35 µM	31 µM	15.4 µM	35.1 µM	59.5 µM	45.7 µM	31.4 µM	–	–	–	–	–	–	–	–	–	–
NNC(=O)/C(=C/c1cccc([N+](=O)[O-])c1)NC(=O)c1ccccc1	> 100 µM	> 100 µM	> 100 µM	> 100 µM	> 100 µM	> 100 µM	> 100 µM	> 100 µM	> 100 µM	–	–	–	–	–	–	–	–	–
COc1cc(C2C(Cl)C(=O)N2n2cnc3ccccc3c2=O)cc(OC)c1OC (stereo not given)	> 100 µM	> 100 µM	> 100 µM	> 100 µM	> 100 µM	> 100 µM	> 100 µM	> 100 µM	> 100 µM	–	–	–	–	–	–	–	–	–
NC(N)=NS(=O)(=O)c1ccc(NC(=O)c2cccc3c(Nc4ccc(S(=O)(=O)N=C(N)N)cc4)c4ccc(Cl)cc4nc23)cc1	> 100 µM	> 100 µM	> 100 µM	–	> 100 µM	> 100 µM	> 100 µM	> 100 µM	> 100 µM	–	–	–	–	–	–	–	–	–
CCOC(=O)Cc1c(Cc2[nH]c(C(=O)OCc3ccccc3)c(CC(=O)OCC)c2CC(=O)OCC)[nH]c(C(=O)OCc2ccccc2)c1CC(=O)OCC	> 100 µM	–	> 100 µM	> 100 µM	> 100 µM	–	–	> 100 µM	> 100 µM	–	–	–	–	–	–	–	–	–
CCCCN(CCCC)C(=O)C(=O)CC(=O)c1ccc(Br)cc1	> 100 µM	> 100 µM	> 100 µM	–	> 100 µM	> 100 µM	> 100 µM	> 100 µM	> 100 µM	–	–	–	–	–	–	–	–	–
Cc1cc(Br)cc(C)c1NC(=O)C(=O)CC(=O)c1sc(-n2nc(-c3ccccc3)cc2-c2ccccc2)nc1C	> 100 µM	> 100 µM	> 100 µM	> 100 µM	> 100 µM	–	> 100 µM	> 100 µM	–	–	–	–	–	–	–	–	–	–
CC1=C(C(=O)Nc2ccccc2)C(c2ccc3c(c2)OCO3)C(C(=O)Nc2ccccc2)=C(C)N1	> 100 µM	> 100 µM	> 100 µM	–	> 100 µM	74.5 µM	> 100 µM	> 100 µM	> 100 µM	–	–	–	–	–	–	–	–	–
Cn1ncc2cc3c(Nc4ccc(Cl)cc4)cccc3nc21	44 µM	38.3 µM	72.5 µM	–	76.1 µM	51.8 µM	88 µM	46.3 µM	29.4 µM	–	–	–	–	–	–	–	–	–
COc1c(OC(C)=O)ccc(/C=C2\N=C(C)OC2=O)c1[N+](=O)[O-]	–	> 100 µM	> 100 µM	> 100 µM	> 100 µM	> 100 µM	–	> 100 µM	> 100 µM	–	–	–	–	–	–	–	–	–
C/C(=N\NC(=S)Nc1ccc(C(=O)O)cc1)c1ccccn1	47.8 µM	62.1 µM	30.4 µM	56.3 µM	45.5 µM	35.4 µM	> 100 µM	28.7 µM	32.8 µM	–	–	–	–	–	–	–	–	–
